Results reported in publication PMC5218480 (PLoS ONE, 2017).

System: MV-4-11 cells
Experiment: Gene expression microarray analysis (Affymetrix PrimeView) and GSEA
Type: cell-based, human
Set-up: RFU PODN (11730768_x_at) / Fold change /veh PODN (11730768_x_at) / RFU LINC00158 (11744669_a_at) / Fold change /veh LINC00158 (11744669_a_at) / RFU DUSP10 (11751237_a_at) / Fold change /veh DUSP10 (11751237_a_at) / RFU ID3 (11757404_x_at) / Fold change /veh ID3 (11757404_x_at) / RFU PLEKHG5 (11737974_s_at) / Fold change /veh PLEKHG5 (11737974_s_at) / RFU LRRC4B (11730491_at) / Fold change /veh LRRC4B (11730491_at) / RFU GIMAP4 (11747438_a_at) / Fold change /veh GIMAP4 (11747438_a_at) / RFU KRT8 (11758183_x_at) / Fold change /veh KRT8 (11758183_x_at) / RFU CNN1 (11734310_a_at) / Fold change /veh CNN1 (11734310_a_at) / RFU VPS37D (11726825_at) / Fold change /veh VPS37D (11726825_at) / RFU C10orf10 (11716522_x_at) / Fold change /veh C10orf10 (11716522_x_at) / RFU KIR2DL2 /// KIR2DL4 /// KIR2DL5A /// KIR2DL5B /// KIR2DS1 /// KIR2DS2 /// KIR2DS3 /// KIR2DS4 /// KIR3DL3 /// KIR3DL3 /// KIR3DS1 (11738374_at) / Fold change /veh KIR2DL2 /// KIR2DL4 /// KIR2DL5A /// KIR2DL5B /// KIR2DS1 /// KIR2DS2 /// KIR2DS3 /// KIR2DS4 /// KIR3DL3 /// KIR3DL3 /// KIR3DS1 (11738374_at) / RFU C1QL1 (11718748_at) / Fold change /veh C1QL1 (11718748_at) / RFU TMPRSS4 (11747572_a_at) / Fold change /veh TMPRSS4 (11747572_a_at) / RFU HAMP (11756126_x_at) / Fold change /veh HAMP (11756126_x_at) / RFU RNFT2 (11725882_a_at) / Fold change /veh RNFT2 (11725882_a_at) / RFU NR4A2 (11747474_a_at) / Fold change /veh NR4A2 (11747474_a_at) / RFU ABCC12 (11746883_a_at) / Fold change /veh ABCC12 (11746883_a_at) / RFU TMEM136 (11760407_x_at) / Fold change /veh TMEM136 (11760407_x_at) / RFU CLDN22 /// WWC2 (11732394_at) / Fold change /veh CLDN22 /// WWC2 (11732394_at) / RFU HLA-DPB1 (11760878_x_at) / Fold change /veh HLA-DPB1 (11760878_x_at) / RFU SPINT1 (11716480_a_at) / Fold change /veh SPINT1 (11716480_a_at) / RFU GAP43 (11754022_s_at) / Fold change /veh GAP43 (11754022_s_at) / RFU A4GNT (11735810_at) / Fold change /veh A4GNT (11735810_at) / RFU PRB3 (11715151_x_at) / Fold change /veh PRB3 (11715151_x_at) / RFU TUBB4B (11761932_at) / Fold change /veh TUBB4B (11761932_at) / RFU CAPN14 (11732068_a_at) / Fold change /veh CAPN14 (11732068_a_at) / RFU TMCC2 (11721928_a_at) / Fold change /veh TMCC2 (11721928_a_at) / RFU IRGQ (11745062_a_at) / Fold change /veh IRGQ (11745062_a_at) / RFU FAM174B (11720279_a_at) / Fold change /veh FAM174B (11720279_a_at) / RFU TMPRSS4 (11748680_a_at) / Fold change /veh TMPRSS4 (11748680_a_at) / RFU FAM212B (11763350_a_at) / Fold change /veh FAM212B (11763350_a_at) / RFU PLEKHG5 (11743358_a_at) / Fold change /veh PLEKHG5 (11743358_a_at) / RFU ZSCAN30 (11745921_a_at) / Fold change /veh ZSCAN30 (11745921_a_at) / RFU CMKLR1 (11741424_a_at) / Fold change /veh CMKLR1 (11741424_a_at) / RFU LOC101060620 /// MAPK8IP1 (11723275_at) / Fold change /veh LOC101060620 /// MAPK8IP1 (11723275_at) / RFU SPTSSB (11747773_x_at) / Fold change /veh SPTSSB (11747773_x_at) / RFU PRSS12 (11739890_at) / Fold change /veh PRSS12 (11739890_at) / RFU BIN1 (11741810_x_at) / Fold change /veh BIN1 (11741810_x_at) / RFU WNT11 (11732464_a_at) / Fold change /veh WNT11 (11732464_a_at) / RFU C10orf10 (11716521_a_at) / Fold change /veh C10orf10 (11716521_a_at) / RFU C5orf56 (11738089_at) / Fold change /veh C5orf56 (11738089_at) / RFU CYB561 (11721691_x_at) / Fold change /veh CYB561 (11721691_x_at) / RFU ANKRD19P (11752326_a_at) / Fold change /veh ANKRD19P (11752326_a_at) / RFU OR2T12 /// OR2T33 /// OR2T8 (11738714_s_at) / Fold change /veh OR2T12 /// OR2T33 /// OR2T8 (11738714_s_at) / RFU VCAN (11748164_a_at) / Fold change /veh VCAN (11748164_a_at) / RFU JSRP1 (11732532_at) / Fold change /veh JSRP1 (11732532_at) / RFU KRTAP10-11 (11738290_x_at) / Fold change /veh KRTAP10-11 (11738290_x_at) / RFU MYO3A (11730013_a_at) / Fold change /veh MYO3A (11730013_a_at) / RFU EBF3 (11725865_a_at) / Fold change /veh EBF3 (11725865_a_at) / RFU CAMK2N1 (11719241_x_at) / Fold change /veh CAMK2N1 (11719241_x_at) / RFU C5orf56 (11738088_a_at) / Fold change /veh C5orf56 (11738088_a_at) / RFU OLFML3 (11715873_a_at) / Fold change /veh OLFML3 (11715873_a_at) / RFU LOC100653217 /// NTM (11731650_a_at) / Fold change /veh LOC100653217 /// NTM (11731650_a_at) / RFU MAPK11 (11762145_a_at) / Fold change /veh MAPK11 (11762145_a_at) / RFU FIZ1 (11724087_x_at) / Fold change /veh FIZ1 (11724087_x_at) / RFU OASL (11726364_x_at) / Fold change /veh OASL (11726364_x_at) / RFU SOX15 (11748057_x_at) / Fold change /veh SOX15 (11748057_x_at) / RFU CD79A (11719716_a_at) / Fold change /veh CD79A (11719716_a_at) / RFU HIST1H1D (11736915_at) / Fold change /veh HIST1H1D (11736915_at) / RFU CASKIN2 (11723855_a_at) / Fold change /veh CASKIN2 (11723855_a_at) / RFU LOC730098 (11760151_x_at) / Fold change /veh LOC730098 (11760151_x_at) / RFU OR4N2 (11742367_at) / Fold change /veh OR4N2 (11742367_at) / RFU PRRT2 (11749266_a_at) / Fold change /veh PRRT2 (11749266_a_at) / RFU SNX32 (11753110_a_at) / Fold change /veh SNX32 (11753110_a_at) / RFU CDHR5 (11726645_a_at) / Fold change /veh CDHR5 (11726645_a_at) / RFU RCAN1 (11760418_a_at) / Fold change /veh RCAN1 (11760418_a_at) / RFU FAM167A (11723789_a_at) / Fold change /veh FAM167A (11723789_a_at) / RFU FAM26E (11764081_at) / Fold change /veh FAM26E (11764081_at) / RFU ISYNA1 (11749810_s_at) / Fold change /veh ISYNA1 (11749810_s_at) / RFU ACY1 (11761880_at) / Fold change /veh ACY1 (11761880_at) / RFU 11764098_at / Fold change /veh 11764098_at / RFU SAMD14 (11745864_x_at) / Fold change /veh SAMD14 (11745864_x_at) / RFU NPB (11741838_a_at) / Fold change /veh NPB (11741838_a_at) / RFU TMPRSS6 (11731388_a_at) / Fold change /veh TMPRSS6 (11731388_a_at) / RFU KRTAP10-2 (11738614_at) / Fold change /veh KRTAP10-2 (11738614_at) / RFU ARHGAP8 /// PRR5-ARHGAP8 (11727945_x_at) / Fold change /veh ARHGAP8 /// PRR5-ARHGAP8 (11727945_x_at) / RFU KRTAP5-7 /// NADSYN1 (11734609_at) / Fold change /veh KRTAP5-7 /// NADSYN1 (11734609_at) / RFU RASL12 (11751679_a_at) / Fold change /veh RASL12 (11751679_a_at) / RFU CDKN2B (11736163_a_at) / Fold change /veh CDKN2B (11736163_a_at) / RFU PRF1 (11729649_at) / Fold change /veh PRF1 (11729649_at) / RFU, ZNF638 /// ZNF638-IT1 / Fold change vs veh, ZNF638 /// ZNF638-IT1 / RFU, PANK3 / Fold change vs veh, PANK3 / RFU, SH3YL1 / Fold change vs veh, SH3YL1 / RFU, ZEB2 / Fold change vs veh, ZEB2 / RFU, NRIP1 / Fold change vs veh, NRIP1 / RFU, PTTG1IP / Fold change vs veh, PTTG1IP / RFU, CAPN2 / Fold change vs veh, CAPN2 / RFU, MED14 / Fold change vs veh, MED14 / RFU, SNORA58 / Fold change vs veh, SNORA58 / RFU, C1orf63 / Fold change vs veh, C1orf63 / RFU, LRRFIP1 / Fold change vs veh, LRRFIP1 / RFU, NDUFAF7 / Fold change vs veh, NDUFAF7 / RFU, SLC12A2 / Fold change vs veh, SLC12A2 / RFU, IBTK / Fold change vs veh, IBTK / RFU, ESF1 / Fold change vs veh, ESF1 / Fold change vs veh, TMEM50B / RFU, TAOK1 / Fold change vs veh, TAOK1 / RFU, ACBD3 / Fold change vs veh, ACBD3 / RFU, TMA16 / Fold change vs veh, TMA16 / RFU, RWDD3 / Fold change vs veh, RWDD3 / RFU, BCAT1 / Fold change vs veh, BCAT1 / RFU, EDEM3 / Fold change vs veh, EDEM3 / RFU, TMEM33 / Fold change vs veh, TMEM33 / RFU, WDR75 / Fold change vs veh, WDR75 / RFU, AHCTF1 / Fold change vs veh, AHCTF1 / RFU, TFRC / Fold change vs veh, TFRC / RFU, ZDHHC17 / Fold change vs veh, ZDHHC17 / RFU, NOM1 / Fold change vs veh, NOM1 / RFU, ARL8B / Fold change vs veh, ARL8B / RFU, ZBTB11 / Fold change vs veh, ZBTB11 / RFU, TAMM41 / Fold change vs veh, TAMM41 / RFU, KIAA1704 /// LOC100996395 / Fold change vs veh, KIAA1704 /// LOC100996395 / RFU, ING1 / Fold change vs veh, ING1 / RFU, TRMT61B / Fold change vs veh, TRMT61B / RFU, FUBP3 / Fold change vs veh, FUBP3 / RFU, TP53 / Fold change vs veh, TP53 / RFU, TNKS2 / Fold change vs veh, TNKS2 / RFU, ZFP14 / Fold change vs veh, ZFP14 / RFU, ACTR2 / Fold change vs veh, ACTR2 / RFU, PPP3R1 / Fold change vs veh, PPP3R1 / RFU, PIK3R1 / Fold change vs veh, PIK3R1 / RFU, HNRNPA1 / Fold change vs veh, HNRNPA1 / RFU, RNF170 / Fold change vs veh, RNF170 / RFU, ZNF28 / Fold change vs veh, ZNF28 / RFU, RNGTT / Fold change vs veh, RNGTT / RFU, OGT / Fold change vs veh, OGT / RFU, BRD1 / Fold change vs veh, BRD1 / RFU, MARS / Fold change vs veh, MARS / RFU, ZNF655 / Fold change vs veh, ZNF655 / RFU, FAHD1 / Fold change vs veh, FAHD1 / RFU, BDP1 / Fold change vs veh, BDP1 / RFU, LRRCC1 / Fold change vs veh, LRRCC1 / RFU, ARID1A / Fold change vs veh, ARID1A / RFU, ZNF146 / Fold change vs veh, ZNF146 / RFU, ZNF330 / Fold change vs veh, ZNF330 / RFU, GPN3 / Fold change vs veh, GPN3 / RFU, C9orf123 / Fold change vs veh, C9orf123 / RFU, N4BP2L2 / Fold change vs veh, N4BP2L2 / RFU, ARFIP1 / Fold change vs veh, ARFIP1 / RFU, FAM179B / Fold change vs veh, FAM179B / RFU, BCL10 / Fold change vs veh, BCL10 / RFU, UHRF1BP1L / Fold change vs veh, UHRF1BP1L / RFU, BET1 / Fold change vs veh, BET1 / RFU, CNOT2 / Fold change vs veh, CNOT2 / RFU, ZNF268 / Fold change vs veh, ZNF268 / Fold change vs veh, ZNF507 / RFU, DGCR2 / Fold change vs veh, DGCR2 / RFU, WDSUB1 / Fold change vs veh, WDSUB1 / Fold change vs veh, HSP90B1 /// MIR3652 / RFU, ADSS / Fold change vs veh, ADSS / RFU, GK / Fold change vs veh, GK / RFU, ZNF148 / Fold change vs veh, ZNF148 / RFU, TAF9 / Fold change vs veh, TAF9 / RFU, SLC1A5 / Fold change vs veh, SLC1A5 / RFU, SLMO2 / Fold change vs veh, SLMO2 / RFU, ABCC4 / Fold change vs veh, ABCC4 / RFU, LOC101060439 /// RAP1B / Fold change vs veh, LOC101060439 /// RAP1B / RFU, RFX7 / Fold change vs veh, RFX7 / RFU, GTPBP10 / Fold change vs veh, GTPBP10 / RFU, CNEP1R1 / Fold change vs veh, CNEP1R1 / RFU, BIVM-ERCC5 /// ERCC5 / Fold change vs veh, BIVM-ERCC5 /// ERCC5 / RFU, ILF3 / Fold change vs veh, ILF3 / RFU 11762660_at / Fold change /veh 11762660_at / RFU VCAN (11757783_s_at) / Fold change /veh VCAN (11757783_s_at) / RFU DDX43 (11728927_at) / Fold change /veh DDX43 (11728927_at) / RFU KRT8 (11758188_x_at) / Fold change /veh KRT8 (11758188_x_at) / RFU NKD1 (11759106_at) / Fold change /veh NKD1 (11759106_at) / RFU SRD5A1 (11742802_a_at) / Fold change /veh SRD5A1 (11742802_a_at) / RFU TPSAB1 /// TPSB2 (11721975_s_at) / Fold change /veh TPSAB1 /// TPSB2 (11721975_s_at) / RFU GSTM3 (11746129_a_at) / Fold change /veh GSTM3 (11746129_a_at) / RFU IL23R (11737362_x_at) / Fold change /veh IL23R (11737362_x_at) / RFU TMEM51 (11727254_a_at) / Fold change /veh TMEM51 (11727254_a_at) / RFU PIWIL2 (11732686_x_at) / Fold change /veh PIWIL2 (11732686_x_at) / RFU ORM1 (11744905_x_at) / Fold change /veh ORM1 (11744905_x_at) / RFU CCDC152 (11743942_at) / Fold change /veh CCDC152 (11743942_at) / RFU ECM1 (11717891_a_at) / Fold change /veh ECM1 (11717891_a_at) / RFU IL23R (11748794_a_at) / Fold change /veh IL23R (11748794_a_at) / RFU TNFAIP8L3 (11732012_x_at) / Fold change /veh TNFAIP8L3 (11732012_x_at) / RFU MBOAT4 (11741988_at) / Fold change /veh MBOAT4 (11741988_at) / RFU 11764193_at / Fold change /veh 11764193_at / RFU TMEM53 (11763286_at) / Fold change /veh TMEM53 (11763286_at) / RFU MAGEB2 (11727129_at) / Fold change /veh MAGEB2 (11727129_at) / RFU TMEM200A (11744735_a_at) / Fold change /veh TMEM200A (11744735_a_at) / RFU CCDC152 (11751479_a_at) / Fold change /veh CCDC152 (11751479_a_at) / RFU FAM211A (11726209_a_at) / Fold change /veh FAM211A (11726209_a_at) / RFU RGS16 (11746705_a_at) / Fold change /veh RGS16 (11746705_a_at) / RFU VCAN (11755009_s_at) / Fold change /veh VCAN (11755009_s_at) / RFU RHOB (11743442_s_at) / Fold change /veh RHOB (11743442_s_at) / RFU RGS16 (11720943_a_at) / Fold change /veh RGS16 (11720943_a_at) / RFU RGS16 (11720944_at) / Fold change /veh RGS16 (11720944_at) / RFU, VPS4B / Fold change vs veh, VPS4B / RFU, CREB1 / Fold change vs veh, CREB1 / RFU, DNAJC13 / Fold change vs veh, DNAJC13 / RFU, GNAQ / Fold change vs veh, GNAQ / RFU, CDK5R1 / Fold change vs veh, CDK5R1 / RFU, ZRANB3 / Fold change vs veh, ZRANB3 / RFU, CUL4A / Fold change vs veh, CUL4A / RFU, CCNY / Fold change vs veh, CCNY / RFU, UFL1 / Fold change vs veh, UFL1 / RFU, COG3 / Fold change vs veh, COG3 / RFU, DIAPH2 / Fold change vs veh, DIAPH2 / RFU, SKA2 / Fold change vs veh, SKA2 / RFU, AFF3 / Fold change vs veh, AFF3 / RFU, LMF1 / Fold change vs veh, LMF1 / RFU, IPO11 / Fold change vs veh, IPO11 / RFU, DFFB / Fold change vs veh, DFFB / RFU, FOXP1 / Fold change vs veh, FOXP1 / RFU, CARD8 / Fold change vs veh, CARD8 / RFU, STRN3 / Fold change vs veh, STRN3 / RFU, ADK / Fold change vs veh, ADK / RFU, RASSF2 / Fold change vs veh, RASSF2 / RFU, WIPF1 / Fold change vs veh, WIPF1 / RFU, LARP1B / Fold change vs veh, LARP1B / RFU, RASA1 / Fold change vs veh, RASA1 / RFU, RB1 / Fold change vs veh, RB1 / RFU, PPFIA1 / Fold change vs veh, PPFIA1 / RFU, MAT2A / Fold change vs veh, MAT2A / RFU, CCT5 / Fold change vs veh, CCT5 / RFU, WDR92 / Fold change vs veh, WDR92 / RFU, CUX1 / Fold change vs veh, CUX1 / RFU, TTC7A / Fold change vs veh, TTC7A / RFU, TMEM135 / Fold change vs veh, TMEM135 / RFU, DEPTOR / Fold change vs veh, DEPTOR / RFU, CPM / Fold change vs veh, CPM / RFU, DNAJB6 / Fold change vs veh, DNAJB6 / RFU, CACNA2D3 / Fold change vs veh, CACNA2D3 / RFU, DTX4 / Fold change vs veh, DTX4 / RFU, TFCP2 / Fold change vs veh, TFCP2 / RFU, GMCL1 /// GMCL1P1 / Fold change vs veh, GMCL1 /// GMCL1P1 / RFU, AEBP2 / Fold change vs veh, AEBP2 / RFU, SNHG1 /// SNORD22 /// SNORD25 /// SNORD26 /// SNORD27 /// SNORD28 /// SNORD29 /// SNORD31 / Fold change vs veh, SNHG1 /// SNORD22 /// SNORD25 /// SNORD26 /// SNORD27 /// SNORD28 /// SNORD29 /// SNORD31 / Fold change (Aza/veh), C12orf56 (ProbeSet 11735607_a_at) / Fold change (ACY-1035/veh), C12orf56 (ProbeSet 11735607_a_at) / Fold change (Aza/veh), FGFR1OP (ProbeSet 11751329_s_at) / Fold change (ACY-1035/veh), FGFR1OP (ProbeSet 11751329_s_at) / Fold change (Aza/veh), VPS36 (ProbeSet 11739960_a_at) / Fold change (ACY-1035/veh), VPS36 (ProbeSet 11739960_a_at) / RFU SYPL1 (11715823_x_at) / Fold change /veh SYPL1 (11715823_x_at) / RFU IGFBP7 (11715501_s_at) / Fold change /veh IGFBP7 (11715501_s_at) / RFU REEP3 (11722064_at) / Fold change /veh REEP3 (11722064_at) / RFU IGLL1 (11728026_x_at) / Fold change /veh IGLL1 (11728026_x_at): dose or concentration left out as unconfirmed
Conditions: MV-4-11 cells, 48 hours

Nc1ccc(-c2cccs2)cc1NC(=O)c1ccc2c(c1)cc(C1CC1)n2CCN1CCOCC1 [ACY-1035]
Fold change /veh C5orf56 (11738089_at): 1.04
